Patent publication US20250145665A1, “MACROCYCLIC PEPTIDES USEFUL AS MODULATORS OF TNF ALPHA” (Bristol-Myers Squibb Company, priority 2023, published 2025)
pIC50: −log10 of the molar value. Starred links: 1 amine or outer side, 2 acyl side, 3 side chain; linkers in the order of their positions; H or OH if unused. Positions of bridges follow the written chain, without caps; N, C: chain ends. Non-standard residues stand in square brackets, D forms with d. Residues, ends and D or L forms follow the SMILES beside them. ξ: configuration not given here. *: point of attachment. Bip(4'-NHCO-C6H4-3-CH2COOH) = N[C@@H](Cc1ccc(-c2ccc(NC(=O)c3cccc(CC(=O)O)c3)cc2)cc1)C(=O)O; X10 = Cn1cc(C(=O)Nc2ccc(-c3ccc(C[C@H](N[*:1])C(=O)[*:2])cc3)cc2)c2ccccc21; X5 = Cn1nc(C(=O)Nc2ccc(-c3ccc(C[C@H](N[*:1])C(=O)[*:2])cc3)cc2)c2ccccc21; dArg(Nω-CH2C6H4-3-CH2Gua) = N=C(N)NCc1cccc(CNC(=N)NCCC[C@@H](N)C(=O)O)c1; Bip(4'-NHBz) = N[C@@H](Cc1ccc(-c2ccc(NC(=O)c3ccccc3)cc2)cc1)C(=O)O; Bip(4'-NH) = O=C([C@H](Cc1ccc(-c2ccc(N[*:3])cc2)cc1)N[*:1])[*:2]; dArg(ω-(3-HO-benzyl)) = N=C(NCCC[C@@H](N)C(=O)O)NCc1cccc(O)c1; Bip(4'-COOH) = N[C@@H](Cc1ccc(-c2ccc(C(=O)O)cc2)cc1)C(=O)O; Bip(4'-NHAc) = CC(=O)Nc1ccc(-c2ccc(C[C@H](N)C(=O)O)cc2)cc1; Indole3carbonyl(1-CH2COOH) = O=C(O)Cn1cc(C(=O)*)c2ccccc21; X66 = N=C(NCCC[C@@H](N[*:1])C(=O)[*:2])NCc1ccc(F)c(F)c1; Ala(imidazol-2-yl) = N[C@@H](Cc1ncc[nH]1)C(=O)O; Ala(morpholin-4-yl) = N[C@@H](CN1CCOCC1)C(=O)O; Benzoyl(4-OCH2COOH) = O=C(O)COc1ccc(C(=O)*)cc1; Bip = N[C@@H](Cc1ccc(-c2ccccc2)cc1)C(=O)O; X81 = N[C@@H](Cc1ccc(OCC(=O)O)cc1)C(=O)*; Phe(4-F) = N[C@@H](Cc1ccc(F)cc1)C(=O)O; Val(3-OH) = CC(C)(O)[C@H](N)C(=O)O; Cya = N[C@@H](CS(=O)(=O)O)C(=O)O; 2Pal = N[C@@H](Cc1ccccn1)C(=O)O; 2Thi = N[C@@H](Cc1cccs1)C(=O)O; Cha = N[C@@H](CC1CCCCC1)C(=O)O; Chg = N[C@H](C(=O)O)C1CCCCC1; Tle = CC(C)(C)[C@H](N)C(=O)O; Aze = O=C(O)[C@@H]1CCN1; ξP = O=C(O)C1CCCN1; Sar = CNCC(=O)O

Target: TNFα (Homo sapiens, UniProt P01375)
Sequence (P01375 77-233 limits assumed): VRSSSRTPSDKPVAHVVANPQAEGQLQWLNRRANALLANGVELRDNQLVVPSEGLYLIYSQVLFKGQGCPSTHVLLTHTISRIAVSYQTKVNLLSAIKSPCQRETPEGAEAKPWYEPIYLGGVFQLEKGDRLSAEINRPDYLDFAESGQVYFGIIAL
Experiment: TNF-Induced HEK-Blue Assay
Format: cell-based
Conditions: not given

SMILES	pIC50
CC[C@H](C)[C@@H]1NC(=O)[C@@H]2CCN2C(=O)[C@H]([C@@H](C)CC)NC(=O)[C@@H](CCCNC(=N)N)NC(=O)[C@H](CC(=O)O)NC(=O)[C@H](Cc2ccc(O)cc2)NC(=O)CN(C)C(=O)[C@H](Cc2ccc(-c3ccc(NC(=O)c4ccccc4)cc3)cc2)NC(=O)[C@H](Cc2ccc(-c3ccccc3)cc2)NC(=O)[C@H](C(C)(C)C)NC(=O)CSC[C@@H](C(=O)NCC(N)=O)NC(=O)[C@H](CC(C)C)NC(=O)[C@H](Cc2ccc(O)cc2)NC1=O [Example 376] ({CH2CO}-[Tle][Bip][Bip(4'-NHBz)][Sar]YD[dR]I[Aze]IYLCG-NH2; thioether N-13)	6.70 to 7.30
CC(C)C[C@@H]1NC(=O)[C@H](Cc2ncc[nH]2)NC(=O)[C@H](C(C)C)NC(=O)[C@@H]2CCCN2C(=O)[C@H](C(C)C)NC(=O)[C@@H](CCCNC(=N)NCc2cccc(CNC(=N)N)c2)NC(=O)[C@H](CC(=O)O)NC(=O)[C@H](Cc2ccccn2)NC(=O)CN(C)C(=O)[C@H](Cc2ccc(-c3ccc(NC(=O)c4cn(CC(=O)O)c5ccccc45)cc3)cc2)NC(=O)[C@H](Cc2ccc(-c3ccc(C(=O)O)cc3)cc2)NC(=O)[C@H](CC2CCCCC2)NC(=O)CSC[C@@H](C(=O)NCC(N)=O)NC1=O [Example 557] ({CH2CO}-[Cha][Bip(4'-COOH)][Bip(4'-NH)](Indole3carbonyl(1-CH2COOH))[Sar][2Pal]D[dArg(Nω-CH2C6H4-3-CH2Gua)]VPV[Ala(imidazol-2-yl)]LCG-NH2; thioether N-13)	> 7.30

Same assay, conditions: HEK-Blue-CD40L cells, NF-kB-driven secreted alkaline phosphatase reporter; TNFα 0.5 ng/ml; 18 h; read-out: TNF induced HEK-Blue assay IC50 value

SMILES	pIC50
CC(C)C[C@@H]1NC(=O)[C@H](CCCNC(=N)N)NC(=O)[C@H](C(C)C)NC(=O)[C@H](Cc2ccccn2)NC(=O)[C@H](C(C)C)NC(=O)[C@H](CCCNC(=N)N)NC(=O)[C@H](CC(=O)O)NC(=O)[C@@H]2CCCN2C(=O)CN(C)C(=O)[C@H](Cc2ccc(-c3ccccc3)cc2)NC(=O)[C@H](Cc2ccc(-c3ccccc3)cc2)NC(=O)[C@H](C(C)(C)O)NC(=O)CSC[C@@H](C(=O)NCC(N)=O)NC1=O [Example 108] ({CH2CO}-[Val(3-OH)][Bip][Bip][Sar]PDRV[2Pal]VRLCG-NH2; thioether N-13)	6.70 to 7.30
CC(=O)Nc1ccc(-c2ccc(C[C@@H]3NC(=O)[C@H](Cc4ccc(-c5ccc(C(=O)O)cc5)cc4)NC(=O)[C@H](CN4CCOCC4)NC(=O)CSC[C@@H](C(=O)NCC(N)=O)NC(=O)[C@H](CC(C)C)NC(=O)[C@H](Cc4ccc(O)cc4)NC(=O)[C@H](C4CCCCC4)NC(=O)[C@@H]4CCCN4C(=O)[C@H](C(C)C)NC(=O)[C@@H](CCCNC(=N)N)NC(=O)[C@H](CC(=O)O)NC(=O)[C@@H]4CCCN4C(=O)CN(C)C3=O)cc2)cc1 [Example 237] ({CH2CO}-[Ala(morpholin-4-yl)][Bip(4'-COOH)][Bip(4'-NHAc)][Sar]PD[dR]VP[Chg]YLCG-NH2; thioether N-13)	6.70 to 7.30
CC[C@H](C)[C@@H]1NC(=O)[C@H](C(C)C)NC(=O)[C@@H]2CCCN2C(=O)[C@H](C(C)C)NC(=O)[C@H](CCCNC(=N)N)NC(=O)[C@H](CC(=O)O)NC(=O)[C@H](Cc2ccc(O)cc2)NC(=O)CN(C)C(=O)[C@H](Cc2ccc(-c3ccccc3)cc2)NC(=O)[C@H](Cc2ccc(-c3ccccc3)cc2)NC(=O)[C@H](Cc2ccccc2)NC(=O)CSC[C@@H](C(=O)NCC(N)=O)NC(=O)[C@H](CC(C)C)NC1=O [Example 19] ({CH2CO}-F[Bip][Bip][Sar]YDRVPVILCG-NH2; thioether N-13)	5.70 to 6.70
CC(C)C[C@@H]1NC(=O)[C@H](CCCNC(=N)N)NC(=O)[C@H](C(C)C)NC(=O)[C@@H]2CCCN2C(=O)[C@H](C(C)C)NC(=O)[C@@H](CCCNC(=N)NCc2cccc(O)c2)NC(=O)[C@H](CC(=O)O)NC(=O)[C@@H]2CCCN2C(=O)CN(C)C(=O)[C@H](Cc2ccc(-c3ccc(NC(=O)c4cccc(CC(=O)O)c4)cc3)cc2)NC(=O)[C@H](Cc2ccc(-c3ccccc3)cc2)NC(=O)[C@H](CN2CCOCC2)NC(=O)CSC[C@@H](C(=O)NCC(N)=O)NC1=O [Example 566] ({CH2CO}-[Ala(morpholin-4-yl)][Bip][Bip(4'-NHCO-C6H4-3-CH2COOH)][Sar]PD[dArg(ω-(3-HO-benzyl))]VPVRLCG-NH2; thioether N-13)	> 7.30
CC(C)C[C@@H]1NC(=O)[C@H](CCCNC(=N)N)NC(=O)[C@H](C(C)C)NC(=O)[C@@H]2CCCN2C(=O)[C@H](Cc2ccc(F)cc2)NC(=O)[C@H](CCCNC(=N)N)NC(=O)[C@H](CC(=O)O)NC(=O)[C@@H]2CCCN2C(=O)CN(C)C(=O)[C@H](Cc2ccc(-c3ccccc3)cc2)NC(=O)[C@H](Cc2ccc(-c3ccccc3)cc2)NC(=O)[C@H](CN2CCOCC2)NC(=O)CSC[C@@H](C(=O)NCC(N)=O)NC1=O [Example 52] ({CH2CO}-[Ala(morpholin-4-yl)][Bip][Bip][Sar]PDR[Phe(4-F)]PVRLCG-NH2; thioether N-13)	5.70 to 6.70
CC(=O)Nc1ccc(-c2ccc(C[C@@H]3NC(=O)[C@H](Cc4ccc(-c5ccccc5)cc4)NC(=O)[C@H](CN4CCOCC4)NC(=O)CSC[C@@H](C(=O)NCC(N)=O)NC(=O)[C@H](CC(C)C)NC(=O)[C@H](CCCNC(=N)N)NC(=O)[C@H](C(C)(C)O)NC(=O)[C@@H]4CCCN4C(=O)[C@H](C(C)C)NC(=O)[C@@H](CCCNC(=N)N)NC(=O)[C@H](CC(=O)O)NC(=O)[C@@H]4CCCN4C(=O)CN(C)C3=O)cc2)cc1 [Example 160] ({CH2CO}-[Ala(morpholin-4-yl)][Bip][Bip(4'-NHAc)][Sar]PD[dR]VP[Val(3-OH)]RLCG-NH2; thioether N-13)	6.70 to 7.30
CC(=O)Nc1ccc(-c2ccc(C[C@@H]3NC(=O)[C@H](Cc4ccc(-c5ccccc5)cc4)NC(=O)[C@H](CN4CCOCC4)NC(=O)CSC[C@@H](C(=O)NCC(N)=O)NC(=O)[C@H](CC(C)C)NC(=O)[C@H](CCCNC(=N)N)NC(=O)[C@H](C(C)C)NC(=O)[C@@H]4CCCN4C(=O)[C@H](C(C)C)NC(=O)[C@@H](CCCNC(=N)N)NC(=O)[C@H](CC(=O)O)NC(=O)[C@H](Cc4ccc(O)cc4)NC(=O)CN(C)C3=O)cc2)cc1 [Example 195] ({CH2CO}-[Ala(morpholin-4-yl)][Bip][Bip(4'-NHAc)][Sar]YD[dR]VPVRLCG-NH2; thioether N-13)	> 7.30
CC(C)C[C@@H]1NC(=O)[C@H](CCCNC(=N)N)NC(=O)[C@H](C(C)C)NC(=O)[C@@H]2CCCN2C(=O)[C@H](C(C)C)NC(=O)[C@@H](CCCNC(=N)N)NC(=O)[C@H](CC(=O)O)NC(=O)[C@@H]2CCCN2C(=O)CN(C)C(=O)[C@H](Cc2ccc(-c3ccc(NC(=O)c4cn(C)c5ccccc45)cc3)cc2)NC(=O)[C@H](Cc2ccc(-c3ccccc3)cc2)NC(=O)[C@H](CN2CCOCC2)NC(=O)CSC[C@@H](C(=O)NCC(N)=O)NC1=O [Example 348] ({CH2CO}-[Ala(morpholin-4-yl)][Bip][X10][Sar]PD[dR]VPVRLCG-NH2; thioether N-13)	6.70 to 7.30
CC(=O)Nc1ccc(-c2ccc(C[C@@H]3NC(=O)[C@H](Cc4ccc(-c5ccc(C(=O)O)cc5)cc4)NC(=O)[C@H](CN4CCOCC4)NC(=O)CSC[C@@H](C(=O)NCC(N)=O)NC(=O)[C@H](CC(C)C)NC(=O)[C@H](Cc4cccs4)NC(=O)[C@H](C(C)C)NC(=O)[C@@H]4CCCN4C(=O)[C@H](C(C)C)NC(=O)[C@@H](CCCNC(=N)N)NC(=O)[C@H](CC(=O)O)NC(=O)[C@H](Cc4cnc[nH]4)NC(=O)CN(C)C3=O)cc2)cc1 [Example 453] ({CH2CO}-[Ala(morpholin-4-yl)][Bip(4'-COOH)][Bip(4'-NHAc)][Sar]HD[dR]VPV[2Thi]LCG-NH2; thioether N-13)	> 7.30
CC(C)C[C@@H]1NC(=O)[C@H](Cc2cnc[nH]2)NC(=O)[C@H](C(C)C)NC(=O)[C@@H]2CCCN2C(=O)[C@H](C(C)C)NC(=O)[C@@H](CCCNC(=N)N)NC(=O)[C@H](CC(=O)O)NC(=O)[C@H](Cc2cnc[nH]2)NC(=O)CN(C)C(=O)[C@H](Cc2ccc(-c3ccc(NC(=O)c4ccc(OCC(=O)O)cc4)cc3)cc2)NC(=O)[C@H](Cc2ccc(-c3ccccc3)cc2)NC(=O)[C@H](CC2CCCCC2)NC(=O)CSC[C@@H](C(=O)NCC(N)=O)NC1=O [Example 489] ({CH2CO}-[Cha][Bip][Bip(4'-NH)](Benzoyl(4-OCH2COOH))[Sar]HD[dR]VPVHLCG-NH2; thioether N-13)	> 7.30
CC(=O)Nc1ccc(-c2ccc(C[C@@H]3NC(=O)[C@H](Cc4ccc(-c5ccccc5)cc4)NC(=O)[C@H](CC4CCCCC4)NC(=O)CSC[C@@H](C(=O)NCC(N)=O)NC(=O)[C@H](CC(C)C)NC(=O)[C@H](Cc4ccc(O)cc4)NC(=O)[C@H](C(C)C)NC(=O)[C@@H]4CCCN4C(=O)[C@H](C(C)C)NC(=O)[C@@H](CCCNC(=N)N)NC(=O)[C@H](CS(=O)(=O)O)NC(=O)[C@@H]4CCCN4C(=O)CN(C)C3=O)cc2)cc1 [Example 309] ({CH2CO}-[Cha][Bip][Bip(4'-NHAc)][Sar]P[Cya][dR]VPVYLCG-NH2; thioether N-13)	6.70 to 7.30
CC[C@H](C)[C@@H]1NC(=O)C2CCCN2C(=O)[C@H]([C@@H](C)CC)NC(=O)[C@@H](CCCNC(=N)N)NC(=O)[C@H](CC(=O)O)NC(=O)[C@H](Cc2ccccc2)NC(=O)CN(C)C(=O)[C@H](Cc2ccc(-c3ccc(NC(=O)[C@@H](N)Cc4ccc(OCC(=O)O)cc4)cc3)cc2)NC(=O)[C@H](Cc2ccc(-c3ccc(C(=O)O)cc3)cc2)NC(=O)[C@H](C(C)(C)C)NC(=O)CSC[C@@H](C(=O)NCC(N)=O)NC(=O)[C@H](CC(C)C)NC(=O)[C@H](Cc2ncc[nH]2)NC1=O (stereo partly drawn) [Example 421] ({CH2CO}-[Tle][Bip(4'-COOH)][Bip(4'-NH)](X81)[Sar]FD[dR]I[ξP]I[Ala(imidazol-2-yl)]LCG-NH2; thioether N-13)	6.70 to 7.30
CC(C)C[C@@H]1NC(=O)[C@H](CCCNC(=N)N)NC(=O)[C@H](C(C)C)NC(=O)[C@@H]2CCCN2C(=O)[C@H](C(C)C)NC(=O)[C@@H](CCCNC(=N)NCc2ccc(F)c(F)c2)NC(=O)[C@H](CC(=O)O)NC(=O)[C@@H]2CCCN2C(=O)CN(C)C(=O)[C@H](Cc2ccc(-c3ccc(NC(=O)c4nn(C)c5ccccc45)cc3)cc2)NC(=O)[C@H](Cc2ccc(-c3ccccc3)cc2)NC(=O)[C@H](CN2CCOCC2)NC(=O)CSC[C@@H](C(=O)NCC(N)=O)NC1=O [Example 473] ({CH2CO}-[Ala(morpholin-4-yl)][Bip][X5][Sar]PD[X66]VPVRLCG-NH2; thioether N-13)	> 7.30
